Organism: Rattus norvegicus
Assay: Open TG-GATES - Regimen: Single
Type: toxicity, organism-based, Sprague-Dawley
Parameters: regimen Single, gender Male, age 6 weeks
Conditions: in vivo, po, 1000 mg/kg, route gavage, dose level High; for APTT / Bas / Eos / Fbg / Hb / Ht / Lym / MCH / MCHC / MCV / Mono / Neu / PT / Plat / RBC / Ret / WBC: tissue Blood; for KIDNEY_L / KIDNEY_R / KIDNEY_TOTAL: tissue Kidney; for LIVER: tissue Liver; for A/G / ALP / ALT / AST / BUN / CRE / Ca / Cl / DBIL / GLC / IP / K / LDH / Na / PL / RALB / TBIL / TC / TG / TP / gamma-GTP: tissue Plasma

SMILES: CCCCNC(=O)NS(=O)(=O)c1ccc(C)cc1 [TOLBUTAMIDE]
- TERMINAL_BW (3 h): 206.8 g
- APTT (3 h): 17 s
- Bas (3 h): 0%
- Eos (3 h): 0.8%
- Fbg (3 h): 292.2 mg/dL
- Hb (3 h): 14.1 g/dL
- Ht (3 h): 43.1%
- Lym (3 h): 76.8%
- MCH (3 h): 21 pg
- MCHC (3 h): 32.6%
- MCV (3 h): 64.4 fL
- Mono (3 h): 3%
- Neu (3 h): 18.6%
- PT (3 h): 12.9 s
- Plat (3 h): 111.8 x10_4/uL
- RBC (3 h): 669.4 x10_4/ul
- Ret (3 h): 9%
- WBC (3 h): 54.6 x10_2/uL
- KIDNEY_L (3 h): 0.9 g
- KIDNEY_R (3 h): 0.9 g
- KIDNEY_TOTAL (3 h): 1.8 g
- LIVER (3 h): 9.4 g
- A/G (3 h): 0.9
- ALP (3 h): 1359.4 IU/L
- ALT (3 h): 46.8 IU/L
- AST (3 h): 77.6 IU/L
- BUN (3 h): 12.4 mg/dL
- CRE (3 h): 0.2 mg/dL
- Ca (3 h): 10.9 mg/dL
- Cl (3 h): 105.8 meq/L
- DBIL (3 h): 0.004 mg/dL
- GLC (3 h): 152 mg/dL
- IP (3 h): 9.3 mg/dL
- K (3 h): 4 meq/L
- LDH (3 h): 56.4 IU/L
- Na (3 h): 140.6 meq/L
- PL (3 h): 138.2 mg/dL
- RALB (3 h): 2.7 g/dL
- TBIL (3 h): 0.05 mg/dL
- TC (3 h): 73.6 mg/dL
- TG (3 h): 75 mg/dL
- TP (3 h): 5.6 g/dL
- gamma-GTP (3 h): 1 IU/L
- TERMINAL_BW (6 h): 203.1 g
- APTT (6 h): 16.9 s
- Bas (6 h): 0%
- Eos (6 h): 1%
- Fbg (6 h): 321.6 mg/dL
- Hb (6 h): 14.1 g/dL
- Ht (6 h): 43%
- Lym (6 h): 72%
- MCH (6 h): 21.4 pg
- MCHC (6 h): 32.7%
- MCV (6 h): 65.3 fL
- Mono (6 h): 3.4%
- Neu (6 h): 23.6%
- PT (6 h): 12.8 s
- Plat (6 h): 120.2 x10_4/uL
- RBC (6 h): 659.8 x10_4/ul
- Ret (6 h): 8.9%
- WBC (6 h): 69.4 x10_2/uL
- KIDNEY_L (6 h): 0.9 g
- KIDNEY_R (6 h): 0.9 g
- KIDNEY_TOTAL (6 h): 1.8 g
- LIVER (6 h): 8.5 g
- A/G (6 h): 0.9
- ALP (6 h): 1301 IU/L
- ALT (6 h): 39 IU/L
- AST (6 h): 70.6 IU/L
- BUN (6 h): 12.6 mg/dL
- CRE (6 h): 0.2 mg/dL
- Ca (6 h): 11 mg/dL
- Cl (6 h): 105.2 meq/L
- DBIL (6 h): 0.008 mg/dL
- GLC (6 h): 140 mg/dL
- IP (6 h): 9.8 mg/dL
- K (6 h): 3.9 meq/L
- LDH (6 h): 56 IU/L
- Na (6 h): 140.6 meq/L
- PL (6 h): 144.4 mg/dL
- RALB (6 h): 2.7 g/dL
- TBIL (6 h): 0.054 mg/dL
- TC (6 h): 79.6 mg/dL
- TG (6 h): 64.2 mg/dL
- TP (6 h): 5.7 g/dL
- gamma-GTP (6 h): 1.2 IU/L
- TERMINAL_BW (9 h): 197.9 g
- APTT (9 h): 17.7 s
- Bas (9 h): 0.2%
- Eos (9 h): 1%
- Fbg (9 h): 332.8 mg/dL
- Hb (9 h): 14.4 g/dL
- Ht (9 h): 43.7%
- Lym (9 h): 75%
- MCH (9 h): 21 pg
- MCHC (9 h): 33.1%
- MCV (9 h): 63.4 fL
- Mono (9 h): 1.8%
- Neu (9 h): 22%
- PT (9 h): 13.1 s
- Plat (9 h): 127.4 x10_4/uL
- RBC (9 h): 689.4 x10_4/ul
- Ret (9 h): 8.2%
- WBC (9 h): 56.7 x10_2/uL
- KIDNEY_L (9 h): 0.9 g
- KIDNEY_R (9 h): 0.9 g
- KIDNEY_TOTAL (9 h): 1.9 g
- LIVER (9 h): 7.8 g
- A/G (9 h): 0.9
- ALP (9 h): 1554.6 IU/L
- ALT (9 h): 38.8 IU/L
- AST (9 h): 69.8 IU/L
- BUN (9 h): 11.2 mg/dL
- CRE (9 h): 0.2 mg/dL
- Ca (9 h): 10.7 mg/dL
- Cl (9 h): 106 meq/L
- DBIL (9 h): 0.006 mg/dL
- GLC (9 h): 125.2 mg/dL
- IP (9 h): 10.4 mg/dL
- K (9 h): 3.9 meq/L
- LDH (9 h): 53.6 IU/L
- Na (9 h): 141.4 meq/L
- PL (9 h): 127 mg/dL
- RALB (9 h): 2.7 g/dL
- TBIL (9 h): 0.056 mg/dL
- TC (9 h): 66.2 mg/dL
- TG (9 h): 44.2 mg/dL
- TP (9 h): 5.8 g/dL
- gamma-GTP (9 h): 1 IU/L
- TERMINAL_BW (24 h): 213.9 g
- APTT (24 h): 16.6 s
- Bas (24 h): 0%
- Eos (24 h): 1%
- Fbg (24 h): 274 mg/dL
- Hb (24 h): 13.3 g/dL
- Ht (24 h): 41.1%
- Lym (24 h): 80%
- MCH (24 h): 21 pg
- MCHC (24 h): 32.5%
- MCV (24 h): 64.4 fL
- Mono (24 h): 3%
- Neu (24 h): 15.6%
- PT (24 h): 13.4 s
- Plat (24 h): 117.8 x10_4/uL
- RBC (24 h): 637.8 x10_4/ul
- Ret (24 h): 7.3%
- WBC (24 h): 83.8 x10_2/uL
- KIDNEY_L (24 h): 0.9 g
- KIDNEY_R (24 h): 0.9 g
- KIDNEY_TOTAL (24 h): 1.8 g
- LIVER (24 h): 9.4 g
- A/G (24 h): 0.9
- ALP (24 h): 1517.2 IU/L
- ALT (24 h): 44.2 IU/L
- AST (24 h): 75.4 IU/L
- BUN (24 h): 15.4 mg/dL
- CRE (24 h): 0.2 mg/dL
- Ca (24 h): 10.9 mg/dL
- Cl (24 h): 106.6 meq/L
- DBIL (24 h): 0.006 mg/dL
- GLC (24 h): 201.4 mg/dL
- IP (24 h): 8.4 mg/dL
- K (24 h): 3.9 meq/L
- LDH (24 h): 73.4 IU/L
- Na (24 h): 141.6 meq/L
- PL (24 h): 136.6 mg/dL
- RALB (24 h): 2.5 g/dL
- TBIL (24 h): 0.058 mg/dL
- TC (24 h): 77.2 mg/dL
- TG (24 h): 72.2 mg/dL
- TP (24 h): 5.4 g/dL
- gamma-GTP (24 h): 1 IU/L
